Target: T1, full length MPS1 (Homo sapiens, UniProt P33981)
T1 sequence (P33981 1-857): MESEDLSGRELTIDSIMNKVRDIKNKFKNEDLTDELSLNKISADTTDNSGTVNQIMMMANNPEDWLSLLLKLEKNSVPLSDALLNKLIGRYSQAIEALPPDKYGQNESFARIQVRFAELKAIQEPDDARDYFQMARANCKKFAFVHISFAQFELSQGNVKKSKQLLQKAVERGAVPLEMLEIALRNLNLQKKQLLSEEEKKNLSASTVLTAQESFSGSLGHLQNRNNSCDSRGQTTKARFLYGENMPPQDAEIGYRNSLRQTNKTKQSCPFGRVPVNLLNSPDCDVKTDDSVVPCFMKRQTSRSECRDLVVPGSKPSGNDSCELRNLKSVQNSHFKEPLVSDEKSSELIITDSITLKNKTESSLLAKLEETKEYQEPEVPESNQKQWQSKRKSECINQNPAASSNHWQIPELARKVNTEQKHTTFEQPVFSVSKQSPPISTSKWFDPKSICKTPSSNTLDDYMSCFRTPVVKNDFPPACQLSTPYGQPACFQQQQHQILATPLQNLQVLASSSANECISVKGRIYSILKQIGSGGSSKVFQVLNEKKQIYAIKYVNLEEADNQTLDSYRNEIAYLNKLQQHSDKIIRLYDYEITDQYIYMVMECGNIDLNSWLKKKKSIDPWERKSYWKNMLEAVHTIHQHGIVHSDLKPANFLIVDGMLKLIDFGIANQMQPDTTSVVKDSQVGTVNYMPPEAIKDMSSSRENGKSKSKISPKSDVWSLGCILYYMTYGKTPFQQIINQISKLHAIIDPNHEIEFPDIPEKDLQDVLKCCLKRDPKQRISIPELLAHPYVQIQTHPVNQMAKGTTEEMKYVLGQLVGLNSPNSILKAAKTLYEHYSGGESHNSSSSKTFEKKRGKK
Experiment: biochemical
Method: Measurement of Inhibition of MPS1 Kinase
(5 μM), ATP (10 μM), either DMSO (1% v/v) or the test compound (in the range 0.25 nM-100 μM in 1% DMSO) and assay buffer (50 mM HEPES (pH 7.0), 0.02% NaN3, 0.01% BSA, 0.1 mM Orthovandate, […], 1 μM DTT, Roche protease inhibitor). The reaction was carried out for 60 min at room temperature and stopped by the addition of buffer (10 μl) containing 20 mM EDTA, 0.05% (v/v) Brij-35, in 0.1M HEPES-buffered saline (Free acid, Sigma, UK). The plate was read on a Caliper EZ reader II (Caliper Life Sciences).
The % inhibition of the compounds is calculated relative to the means of selected control wells. […] The % inhibitions at each concentration are then fitted to a 4 parameter logistic fit: y=(a+((b−a)/(1+((c/x^d)))) where a=asym min, b=asym max, c=IC50 and d=hill coefficient

| SMILES | IC50 [nM] |
| --- | --- |
| Cn1cc(-c2cc3cnc(Nc4ccc(OC(F)F)cc4Cl)cc3[nH]2)cn1 [Example 132, N-(2-Chloro-4-(difluoromethoxy)phenyl)-2-(1-methyl-1H-pyrazol-4-yl)-1H-pyrrolo[3,2-c]pyridin-6-amine] | 288 |
| Cn1cc(-c2ccc(Nc3cc4c(cn3)cc(-c3cnn(C)c3)n4C(=O)OC3CCCC3)c(Cl)c2)cn1 [Example 75] | 12 |
| CC(C)n1c(-c2cnn(C)c2)cc2cnc(Nc3ccc(C(=O)N(C)C)cc3Cl)cc21 [Example 74] | 50 |
| CN(C)C(=O)c1ccc(Nc2cc3c(cn2)c(Cl)c(-c2cnn(C)c2)n3C(=O)OC(C)(C)C)c(Cl)c1 [Example 65] | 127 |
| COc1cc(-c2ccc(Nc3cc4[nH]c(-c5cnn(C)c5)cc4cn3)c(Cl)c2)ccn1 [Example 151, N-(2-Chloro-4-(2-methoxypyridin-4-yl)phenyl)-2-(1-methyl-1H-pyrazol-4-yl)-1H-pyrrolo[3,2-c]pyridin-6-amine] | 182 |
| CN(C)C(=O)c1cc(Cl)c(Nc2cc3c(cn2)cc(-c2cnn(C)c2)n3C(=O)OC(C)(C)C)c(Cl)c1 [Example 13] | 20 |
| COCCOc1ccc(Nc2cc3[nH]c(-c4cn[nH]c4)cc3cn2)cc1 [Example 170, N-(4-(2-Methoxyethoxy)phenyl)-2-(1H-pyrazol-4-yl)-1H-pyrrolo[3,2-c]pyridin-6-amine] | 9 |
| CC(C)OC(=O)n1c(-c2cnn(C)c2)cc2cnc(Nc3ccc(-c4cnn(C)c4)cc3Cl)cc21 [Example 76] | 17 |
| COc1cc(C(=O)NC2CCN(C)CC2)ccc1Nc1cc2[nH]c(-c3cnn(C)c3)cc2cn1 [Example 111, 3-Methoxy-4-((2-(1-methyl-1H-pyrazol-4-yl)-1H-pyrrolo[3,2-c]pyridin-6-yl)amino)-N-(1-methylpiperidin-4-yl)benzamide] | 42 |
| CN(C)C(=O)c1ccc(Nc2cc3c(cn2)cc(-c2cnn(C)c2)n3CC2CCCC2)c(Cl)c1 [Example 64, 3-Chloro-4-(1-(cyclopentylmethyl)-2-(1-methyl-1H-pyrazol-4-yl)-1H-pyrrolo[3,2-c]pyridin-6-ylamino)-N,N-dimethylbenzamide] | 47 |
| CN(C)C(=O)c1cc(Cl)c(Nc2cc3[nH]c(-c4cnn(C)c4)cc3cn2)c(Cl)c1 [Example 121, 3,5-Dichloro-N,N-dimethyl-4-(2-(1-methyl-1H-pyrazol-4-yl)-1H-pyrrolo[3,2-c]pyridin-6-ylamino)benzamide] | 91 |
| CN(C)C(=O)c1ccc(Nc2cc3[nH]c(-c4cnn(C)c4)cc3cn2)c(OC(F)(F)F)c1 [Example 113, N,N-Dimethyl-4-(2-(1-methyl-1H-pyrazol-4-yl)-1H-pyrrolo[3,2-c]pyridin-6-ylamino)-3-(trifluoromethoxy)benzamide] | 68 |
| COCCNC(=O)c1ccc(Nc2cc3c(cn2)cc(-c2cnn(C)c2)n3C(=O)OC(C)(C)C)c(OC)c1 [Example 11] | 9 |
| COC1CN(C(=O)c2ccc(Nc3cc4[nH]c(-c5cnn(C)c5)c(Cl)c4cn3)c(Cl)c2)C1 [Example 195, (3-chloro-4-(3-chloro-2-(1-methyl-1H-pyrazol-4-yl)-1H-pyrrolo[3,2-c]pyridin-6-ylamino)phenyl)(3-methoxyazetidin-1-yl)methanone] | 21 |
| COc1cc(CN2CCS(=O)(=O)CC2)ccc1Nc1cc2[nH]c(-c3cnn(C)c3)cc2cn1 [Example 116, N-(2-Methoxy-4-(thiomorpholinomethyl)phenyl)-2-(1-methyl-1H-pyrazol-4-yl)-1H-pyrrolo[3,2-c]pyridin-6-amine-S,S-dioxide] | 10 |
| CN1CCN(C(=O)c2ccc(Nc3cc4[nH]c(-c5cnn(C)c5)cc4cn3)c(Cl)c2)CC1 [Example 146, (3-Chloro-4-(2-(1-methyl-1H-pyrazol-4-yl)-1H-pyrrolo[3,2-c]pyridin-6-ylamino)phenyl)(4-methylpiperazin-1-yl) methanone] | 20 |
| FC(F)(F)c1ccccc1Nc1cc2[nH]c(-c3cn[nH]c3)cc2cn1 [Example 164, 2-(1H-Pyrazol-4-yl)-N-(2-(trifluoromethyl)phenyl)-1H-pyrrolo[3,2-c]pyridin-6-amine] | 512 |
| CN(C)C(=O)c1ccc(Nc2cc3[nH]c(-c4cn[nH]c4)cc3cn2)cc1 [Example 168, 4-(2-(1H-Pyrazol-4-yl)-1H-pyrrolo[3,2-c]pyridin-6-ylamino)-N,N-dimethylbenzamide] | 11 |
| Cn1cc(-c2cc3cnc(Nc4ccc(-c5ccnn5C)cc4Cl)cc3[nH]2)cn1 [Example 149, N-(2-Chloro-4-(1-methyl-1H-pyrazol-5-yl)phenyl)-2-(1-methyl-1H-pyrazol-4-yl)-1H-pyrrolo[3,2-c]pyridin-6-amine] | 22 |
| COc1ccc(Nc2cc3[nH]c(-c4cn[nH]c4)cc3cn2)c(OC)c1 [Example 160, N-(2,4-Dimethoxyphenyl)-2-(1H-pyrazol-4-yl)-1H-pyrrolo[3,2-c]pyridin-6-amine] | 19 |

Stronger by IC50, values ahead:

| IC50 [nM] | SMILES |
| --- | --- |
| 2 | Cc1ncc(-c2ccc(Nc3cc4c(cn3)cc(-c3cnn(C)c3)n4C(=O)OC(C)C)c(Cl)c2)n1C [Example 83] |
| 6 | Cn1cc(-c2cc3cnc(Nc4ccc(C(=O)N5CC(F)(F)C5)cc4Cl)cc3n2C(=O)OC(C)(C)C)cn1 [Example 50] |
| 7 | COC(=O)n1c(-c2cnn(C)c2)cc2cnc(Nc3ccc(-c4cnc(C)n4C)cc3Cl)cc21 [Example 86] |
| 4 | Cc1ncc(-c2ccc(Nc3cc4c(cn3)cc(-c3cnn(C)c3)n4C(=O)OC3CCC3)c(Cl)c2)n1C [Example 85] |
| 4 | Cn1cc(-c2cc3cnc(Nc4ccc(-c5cncn5C)cc4Cl)cc3[nH]2)cn1 [Example 125, N-(2-Chloro-4-(1-methyl-1H-imidazol-5-yl)phenyl)-2-(1-methyl-1H-pyrazol-4-yl)-1H-pyrrolo[3,2-c]pyridin-6-amine] |
| 5 | CN(C)C(=O)c1ccc(Nc2cc3[nH]c(-c4cnco4)cc3cn2)c(Cl)c1 [Example 180, 3-Chloro-N,N-dimethyl-4-(2-(oxazol-5-yl)-1H-pyrrolo[3,2-c]pyridin-6-ylamino)benzamide] |
| 5 | Cn1cc(-c2cc3cnc(Nc4ccc(-c5cncn5C)cc4Cl)cc3n2C(=O)OC2CCC2)cn1 [Example 82] |
| 4 | O=S1(=O)CCN(Cc2ccc(Nc3cc4[nH]c(-c5cn[nH]c5)cc4cn3)cc2)CC1 [Example 175, 2-(1H-Pyrazol-4-yl)-N-(4-(thiomorpholinomethyl)phenyl)-1H-pyrrolo[3,2-c]pyridin-6-amine-S,S-dioxide] |
| 6 | Cn1cncc1-c1ccc(Nc2cc3c(cn2)cc(-c2cnco2)n3C(=O)OC(C)(C)C)c(Cl)c1 [Example 91] |
| 8 | COC1CN(C(=O)c2ccc(Nc3cc4c(cn3)cc(-c3cnn(C)c3)n4C(=O)OC(C)(C)C)c(Cl)c2)C1 [Example 37] |
| 2 | Cc1ncc(-c2ccc(Nc3cc4c(cn3)cc(-c3cnn(C)c3)n4C(=O)OC3CCCC3)c(Cl)c2)n1C [Example 84] |
| 7 | Cc1nn(C)cc1-c1ccc(Nc2cc3c(cn2)cc(-c2cnn(C)c2)n3C(=O)OC(C)(C)C)c(Cl)c1 [Example 21] |
| 8 | COc1cc(CN(C)C)ccc1Nc1cc2c(cn1)cc(-c1cnn(C)c1)n2C(=O)OC(C)(C)C [Example 35] |
| 5 | Cc1ncn(C)c1-c1ccc(Nc2cc3c(cn2)cc(-c2cnn(C)c2)n3C(=O)OC(C)(C)C)c(Cl)c1 [Example 63] |
| 6 | CC(C)OC(=O)n1c(-c2cnn(C)c2)cc2cnc(Nc3ccc(C(=O)N(C)C)cc3Cl)cc21 [Example 77] |

— US9371319B2, “Pyrrolopyridineamino derivatives as MPS1 inhibitors” (priority 2011, dated 2016)
